Laboratory results reported in patent US20100267561A1, “HERBICIDAL PYRIDAZINONE DERIVATIVES” (priority 2007, published 2010).
Like-named read-outs stand apart in the source and are kept apart here.

Experiments:
Assay in all cases: Test B pre-/postemergence plant response
Assay type in all cases: in vivo
[1] = test system: green foxtail (Setaria viridis); details: for pest or weed control at 31 g/ha: 31 g ai/ha; for pest or weed control at 62 g/ha: 62 g ai/ha, 100 complete control
Text: (§1) Seeds of plant species selected from blackgrass (Alopecurus myosuroides), downy bromegrass (Bromus tectorum), green foxtail (Setaria viridis), Italian ryegrass (Lolium multiflorum), wheat (Triticum aestivum), wild oat (Avena fatua), catchweed bedstraw (Galium aparine), bermudagrass (Cynodon dactylon), surinam grass (Brachiaria decumbens), cocklebur (Xanthium strumarium), corn (Zea mays), large crabgrass (Digitaria sanguinalis), woolly cupgrass (Eriochloa villosa), giant foxtail (Setaria faberii), goosegrass (Eleusine indica), johnsongrass (Sorghum halepense), kochia (Kochia scoparia), lambsquarters (Chenopodium album), morningglory (Ipomoea coccinea), eastern black (E.B.) nightshade (Solanum ptycanthum), yellow nutsedge (Cyperus esculentus), pigweed (Amaranthus retroflexus), common ragweed (Ambrosia elation), Russian thistle (Salsola iberica), soybean (Glycine max), common (oilseed) sunflower (Helianthus annuus), and velvetleaf (Abutilon theophrasti) were planted and treated preemergence with test chemicals formulated in a non-phytotoxic solvent mixture which included a surfactant.
(§2) At the same time, plants selected from these crop and weed species and also winter barley (Hordeum vulgare), canarygrass (Phalaris minor), chickweed (Stellaria media) and windgrass (Apera spica-venti) were treated with postemergence applications of some of the test chemicals formulated in the same manner. Plants ranged in height from 2 to 18 cm (1- to 4-leaf stage) for postemergence treatments.
(§3) Plant species in the flooded paddy test consisted of rice (Oryza sativa), umbrella sedge (Cyperus difformis), ducksalad (Heteranthera limosa) and barnyardgrass (Echinochloa crus-galli) grown to the 2-leaf stage for testing. At time of treatment, test pots were flooded to 3 cm above the soil surface, treated by application of test compounds directly to the paddy water, and then maintained at that water depth for the duration of the test. Treated plants and controls were maintained in a greenhouse for 13 to 15 days, after which time all species were compared to controls and visually evaluated. Plant response ratings, summarized in Table B, are based on a scale of 0 to 100 where 0 is no effect and 100 is complete control. A dash (-) response means no test result.

[2] = test system: pigweed (Amaranthus retroflexus); details: for pest or weed control at 31 g/ha / pest or weed control at 62 g/ha: Amaranthus retroflexus, read-out: Plant response rating, Pigweed; for pest or weed control at 31 g/ha: 31 g ai/ha; for pest or weed control at 62 g/ha: 62 g ai/ha, 100 complete control
Text: as §1, §2, §3

[3] = test system: surinam grass (Brachiaria decumbens); details: for pest or weed control at 31 g/ha / pest or weed control at 62 g/ha: Urochloa decumbens, read-out: Plant response rating, Surinam Grass; for pest or weed control at 31 g/ha: 31 g ai/ha; for pest or weed control at 62 g/ha: 62 g ai/ha, 100 complete control
Text: as §1, §2, §3

[4] = test system: woolly cupgrass (Eriochloa villosa); details: for pest or weed control at 31 g/ha: 31 g ai/ha; for pest or weed control at 62 g/ha: 62 g ai/ha, 100 complete control
Text: as §1, §2, §3

[5] = test system: bermudagrass (Cynodon dactylon); details: for pest or weed control at 31 g/ha: 31 g ai/ha; for pest or weed control at 62 g/ha: 62 g ai/ha, 100 complete control
Text: as §1, §2, §3

corn (Zea mays) = details: for Corn plant response rating (crop injury, 0 = no effect, 100 = complete kill) at 31 g/ha: 31 g ai/ha; for Corn plant response rating (crop injury, 0 = no effect, 100 = complete kill) at 62 g/ha: 62 g ai/ha, 100 complete control
Text: as §1, §2, §3

[6] = Preemergence, 8 g ai/ha, scale 0 to 100 (0 no effect, 100 complete control)
[7] = Preemergence, 16 g ai/ha, scale 0 to 100
[8] = 8 g ai/ha, postemergence, 0-100 scale
[9] = 16 g ai/ha, postemergence, 0-100 scale
[10] = post-emergence, Postemergence, scale 0 to 100
[11] = post-emergence, Postemergence, scale 0 to 100, 0 no effect
[12] = pre-emergence, Preemergence, scale 0 to 100 (0 no effect, 100 complete control)
[13] = pre-emergence, Preemergence, 0 to 100 scale, 0 no effect

In the case of Cc1cc(-c2ccc(Br)cc2)nn1-c1c(OC(=O)C2CC2)cnn(C(=O)C2CC2)c1=O [Compound 80, 5-[3-(4-bromophenyl)-5-methyl-1H-pyrazol-1-yl]-1-(cyclopropylcarbonyl)-1,6-dihydro-6-oxo-4-pyridazinyl cyclopropanecarboxylate], the “Foxtail, Green plant response rating” value [1, 6] is reported as 0, the “Foxtail, Green plant response rating” value [1, 7] is reported as 98 and the pest or weed control at 16 g/ha ([1]; Setaria viridis, post-emergence, Postemergence, 16 g ai/ha, scale 0 to 100, read-out: Plant response rating, Foxtail, Green) is reported as 60%. The pest or weed control at 31 g/ha ([1]; Setaria viridis, post-emergence, Postemergence, scale 0 to 100, read-out: Plant response rating, Foxtail, Green) was 100%, the pest or weed control at 62 g/ha ([1]; Setaria viridis, post-emergence, Postemergence, scale 0 to 100, 0 no effect, read-out: Plant response rating, Foxtail, Green) was 100% and the pest or weed control at 31 g/ha ([1]; Setaria viridis, pre-emergence, Preemergence, scale 0 to 100 (0 no effect, 100 complete control), read-out: Plant response rating, Foxtail, Green) was 100%. The pest or weed control at 62 g/ha ([1]; Setaria viridis, pre-emergence, Preemergence, 0 to 100 scale, 0 no effect, read-out: Plant response rating, Foxtail, Green) was 100%, the “Pigweed plant response rating” value [2, 8] was 0 and the “Pigweed plant response rating” value [2, 9] was 0. The pest or weed control at 31 g/ha [2, 10] was 0%, the pest or weed control at 62 g/ha [2, 11] was 0% and the pest or weed control at 31 g/ha [2, 12] was 0%. The pest or weed control at 62 g/ha [2, 13] was 55%, the “Pigweed plant response rating” value [2, 6] was 0 and the “Pigweed plant response rating” value [2, 7] was 0. The “Surinam Grass plant response rating” value [3, 8] was 95, the “Surinam Grass plant response rating” value [3, 9] was 100 and the “Surinam Grass plant response rating” value [3, 6] was 0. For the same compound, the “Surinam Grass plant response rating” value [3, 7] was 65, the pest or weed control at 31 g/ha [3, 10] was 100% and the pest or weed control at 62 g/ha [3, 11] was 100%. For the same compound, the pest or weed control at 31 g/ha [3, 12] was 98%, the pest or weed control at 62 g/ha [3, 13] was 100% and the “Cupgrass, Woolly plant response rating” value [4, 8] was 80. For the same compound, the pest or weed control at 16 g/ha ([4]; Eriochloa villosa, post-emergence, Postemergence, 16 g ai/ha, scale 0 to 100, read-out: Plant response rating, Cupgrass, Woolly) was 95%, the pest or weed control at 31 g/ha ([4]; Eriochloa villosa, post-emergence, Postemergence, scale 0 to 100, read-out: Plant response rating, Cupgrass, Woolly) was 100% and the pest or weed control at 62 g/ha ([4]; Eriochloa villosa, post-emergence, Postemergence, scale 0 to 100, 0 no effect, read-out: Plant response rating, Cupgrass, Woolly) was 100%. The pest or weed control at 31 g/ha ([4]; Eriochloa villosa, pre-emergence, Preemergence, scale 0 to 100 (0 no effect, 100 complete control), read-out: Plant response rating, Cupgrass, Woolly) was 98%, the pest or weed control at 62 g/ha ([4]; Eriochloa villosa, pre-emergence, Preemergence, 0 to 100 scale, 0 no effect, read-out: Plant response rating, Cupgrass, Woolly) was 100% and the “Cupgrass, Woolly plant response rating” value [4, 6] was 0. For the same compound, the “Cupgrass, Woolly plant response rating” value [4, 7] was 65, the “Bermudagrass plant response rating” value [5, 8] was 85 and the pest or weed control at 16 g/ha ([5]; Cynodon dactylon, post-emergence, Postemergence, 16 g ai/ha, scale 0 to 100, read-out: Plant response rating, Bermudagrass) was 95%. It also gave a pest or weed control at 31 g/ha ([5]; Cynodon dactylon, post-emergence, Postemergence, scale 0 to 100, read-out: Plant response rating, Bermudagrass) of 100%, a pest or weed control at 62 g/ha ([5]; Cynodon dactylon, post-emergence, Postemergence, scale 0 to 100, 0 no effect, read-out: Plant response rating, Bermudagrass) of 100% and a pest or weed control at 31 g/ha ([5]; Cynodon dactylon, pre-emergence, Preemergence, scale 0 to 100 (0 no effect, 100 complete control), read-out: Plant response rating, Bermudagrass) of 100%. For the same compound, the pest or weed control at 62 g/ha ([5]; Cynodon dactylon, pre-emergence, Preemergence, 0 to 100 scale, 0 no effect, read-out: Plant response rating, Bermudagrass) was 100%, the “Bermudagrass plant response rating” value [5, 6] was 50 and the “Bermudagrass plant response rating” value ([5]; Preemergence, 16 g ai/ha, scale 0 to 100 (0 no effect, 100 complete control)) was 100. The “Corn plant response rating” value (corn (Zea mays); [8]) was 100, the “Corn plant response rating” value (corn (Zea mays); [6]) was 20 and the “Corn plant response rating” value (corn (Zea mays); [7]) was 85. It also gave a Corn plant response rating (crop injury, 0 = no effect, 100 = complete kill) at 16 g/ha (corn (Zea mays); Zea mays, post-emergence, Postemergence, 16 g ai/ha, scale 0 to 100) of 100%, a Corn plant response rating (crop injury, 0 = no effect, 100 = complete kill) at 31 g/ha (corn (Zea mays); Zea mays, post-emergence, Postemergence, scale 0 to 100) of 100% and a Corn plant response rating (crop injury, 0 = no effect, 100 = complete kill) at 62 g/ha (corn (Zea mays); Zea mays, post-emergence, Postemergence, scale 0 to 100, 0 no effect) of 100%. The Corn plant response rating (crop injury, 0 = no effect, 100 = complete kill) at 31 g/ha (corn (Zea mays); Zea mays, pre-emergence, Preemergence, scale 0 to 100 (0 no effect, 100 complete control)) was 98% and the Corn plant response rating (crop injury, 0 = no effect, 100 = complete kill) at 62 g/ha (corn (Zea mays); Zea mays, pre-emergence, Preemergence, 0 to 100 scale, 0 no effect) was 100%.
